Values of other authors in patent US20180271924A1, “COMPOUND AND METHOD FOR REDUCING INFLAMMATION, PAIN, ALLERGY, FLU AND COLD SYMPTOMS” (priority 2018, published 2018).
Like-named read-outs stand apart in the source and are kept apart here.

What was measured:
delta opioid receptor = biological target: T1, delta opioid receptor (Rattus norvegicus, UniProt P33533); settings: rat CNS membranes
T1 construct: membranes prepared from rat central nervous system; from tissue; host or cells: rat central nervous system membranes

ORL1-binding sites = ORL1-binding sites (Cavia porcellus, UniProt P47748)
mu receptors = biological target: T2, mu receptors (Rattus norvegicus, UniProt P33535); settings: rat CNS membranes
T2 construct: membranes prepared from rat central nervous system; from tissue; host or cells: rat central nervous system membranes

[1] = tested on: mu-, delta- and kappa-opioid binding sites
kappa receptors = biological target: T3, kappa receptors (Rattus norvegicus, UniProt P34975); settings: rat CNS membranes
T3 construct: membranes prepared from rat central nervous system; from tissue; host or cells: rat central nervous system membranes

mu-opioid binding sites = settings: corresponds to K value
ORL1 receptors = biological target: T4, ORL1 receptors (Cavia porcellus, UniProt P47748); settings: guinea pig small intestine
T4 construct: functional ORL1 receptors in the guinea pig small intestine; from tissue; host or cells: guinea pig small intestine
T4 sequence (P47748 whole entry): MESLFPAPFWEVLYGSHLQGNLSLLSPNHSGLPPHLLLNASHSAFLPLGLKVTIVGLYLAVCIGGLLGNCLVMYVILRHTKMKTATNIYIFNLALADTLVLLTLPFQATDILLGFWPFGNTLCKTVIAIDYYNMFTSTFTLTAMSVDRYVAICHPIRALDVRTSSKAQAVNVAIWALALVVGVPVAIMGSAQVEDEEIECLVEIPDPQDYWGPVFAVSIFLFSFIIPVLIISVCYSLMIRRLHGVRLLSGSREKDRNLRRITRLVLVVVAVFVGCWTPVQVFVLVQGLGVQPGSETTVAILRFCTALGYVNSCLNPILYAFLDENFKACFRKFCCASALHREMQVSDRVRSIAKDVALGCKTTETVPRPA

Chain of ORL1-binding sites (P47748 whole entry): as above
T1 sequence (P33533 whole entry): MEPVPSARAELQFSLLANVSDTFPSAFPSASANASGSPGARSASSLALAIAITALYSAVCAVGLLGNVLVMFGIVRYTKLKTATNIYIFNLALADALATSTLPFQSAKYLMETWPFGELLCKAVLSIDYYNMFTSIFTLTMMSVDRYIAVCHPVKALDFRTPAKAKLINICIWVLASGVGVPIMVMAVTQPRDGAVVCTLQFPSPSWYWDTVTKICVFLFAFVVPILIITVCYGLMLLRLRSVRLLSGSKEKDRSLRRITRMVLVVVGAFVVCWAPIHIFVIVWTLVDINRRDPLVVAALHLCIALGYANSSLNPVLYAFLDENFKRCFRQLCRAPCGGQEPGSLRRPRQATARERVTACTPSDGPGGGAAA
T3 sequence (P34975 whole entry): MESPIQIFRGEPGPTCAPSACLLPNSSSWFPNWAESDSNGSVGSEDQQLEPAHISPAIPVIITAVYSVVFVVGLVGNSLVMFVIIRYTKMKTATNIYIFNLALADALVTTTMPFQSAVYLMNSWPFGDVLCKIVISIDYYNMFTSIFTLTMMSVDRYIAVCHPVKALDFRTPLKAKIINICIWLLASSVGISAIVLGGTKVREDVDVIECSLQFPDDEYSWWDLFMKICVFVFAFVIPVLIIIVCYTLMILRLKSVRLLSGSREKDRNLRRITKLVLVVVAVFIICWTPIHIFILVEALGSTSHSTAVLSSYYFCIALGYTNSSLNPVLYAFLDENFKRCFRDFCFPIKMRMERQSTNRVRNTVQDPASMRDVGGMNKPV
T2 sequence (P33535 whole entry): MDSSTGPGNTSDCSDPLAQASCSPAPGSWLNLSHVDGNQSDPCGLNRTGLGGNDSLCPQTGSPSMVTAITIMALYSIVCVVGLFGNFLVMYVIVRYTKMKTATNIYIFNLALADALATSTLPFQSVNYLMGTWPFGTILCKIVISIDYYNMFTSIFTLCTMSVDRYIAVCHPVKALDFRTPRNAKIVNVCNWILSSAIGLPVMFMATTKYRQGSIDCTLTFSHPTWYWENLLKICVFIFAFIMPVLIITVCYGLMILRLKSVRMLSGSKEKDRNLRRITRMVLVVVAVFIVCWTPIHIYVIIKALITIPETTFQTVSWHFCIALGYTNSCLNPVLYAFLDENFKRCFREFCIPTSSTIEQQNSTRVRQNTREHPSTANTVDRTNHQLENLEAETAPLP

## C/C=C1/CN2CC[C@@]34c5cc(O)ccc5N(C)[C@]35OC[C@@]4(C(=O)OC)[C@H]1C[C@H]25 [akuammine]
Opioid receptors
  character at opioid receptors: opioid antagonist
Delta opioid receptor
  affinity for delta opioid receptor relative to kappa and mu: ten times lower
ORL1-binding sites
  affinity for ORL1-binding sites (words): neither akuammine nor any of the other alkaloids showed appreciable affinity
ORL1-binding sites; listed as Akuammine
  affinity for ORL1-binding sites (words): little affinity
Mu receptors
  affinity for mu receptors: micromolecular affinities
other
  solubility in water: slightly soluble in water
[1]
  opioid binding (words): low affinity
Kappa receptors
  affinity for kappa receptors: micromolecular affinities
mu-opioid binding sites
  affinity: 2.1 mM⁻¹
ORL1 receptors
  antagonism of nociceptin at functional ORL1 receptors: does not antagonize nociceptin
